Source: patent US20100016358A1, “GAMMA-GLOBIN INDUCER” (KOWA CO., LTD., priority 2006, published 2010)
Where a name gives a salt, the structure may show the parent alone.

Key:
Format in all cases: cell-based, human
K562 cells [1] = assay: HbF-producing cells (F cells) in K562 cell population by flow cytometry with FITC-labeled anti-HbF antibody; conditions: 0.1-μM compound, cultured three days
Description: K562 cells (1×10^5 cells/mL) were seeded into each well of 24-well plate (2 mL/well). A solution of compound 1 (×1000) was added to the plate (2 μL/well), and cells were cultured in a CO2 incubator (37° C., 5% CO2) for three days. The cultured cells were collected through centrifugation and treated for 10 minutes with phosphate buffered saline (PBS) containing 0.05% glutaraldehyde/0.1% bovine serum albumin (BSA). The liquid was removed from the mixture through centrifugation, to thereby obtain pellets. Subsequently, 0.1% BSA/PBS was added to the separated pellets, and the same treatment was performed three times, to thereby wash the cells. The thus-washed cells were subjected, for five minutes, to permeation treatment with 0.1% BSA/PBS containing 1% Triton X-100 (0.5 mL) and washed once again. The resultant cells were suspended in 0.1% BSA/PBS (80 μL). FITC-labeled anti-HbF antibody (10 μg/mL, product of Caltag) (5 μL) was added to the suspension, and the mixture was allowed to react at room temperature in the dark for 15 minutes, whereby HbF present in the cells was immunostained. In a similar manner as described above, the stained cells were washed and suspended in 0.1% BSA/PBS containing 1% formaldehyde (0.5 mL). The suspension was analyzed through a method known in the art, by means of a flow cytometer (EPICS XL, product of Beckman Coulter, Inc.).

K562 cells [2] = assay: Measurement of the amount of hemoglobin produced by K562 cells (porphyrin fluorescence); conditions: for hemoglobin production promoting action: FIG. 1
Description: Compound 1 was synthesized through a method disclosed in International publication WO 03/02703 (Example 13) and dissolved in dimethyl sulfoxide (DMSO). The concentration of the solution was adjusted as appropriate through dilution. An equiamount of DMSO was employed as a control solution.
Cells of human proerythroblast cell line K562 (obtained from ATCC) were added to a complete culture medium (RPMI-1640 medium containing 10% fetal bovine serum), and the resultant cells (1×10^5 cells/mL) were seeded into each well of 24-well plate (2 mL/well). A solution of compound 1 (×1000) was added to the plate (2 μL/well), and cells were cultured in a CO2 incubator (37° C., 5% CO2) for three days. The medium was renewed, and cells were further cultured for three days.
The cultured cells were collected and counted. The number of cells in each sample was adjusted to 3×10^5, and the intensity of the fluorescence attributed to a porphyrin ring was measured, to thereby determine the hemoglobin level. Specifically, cells collected through centrifugation were suspended in 2M oxalic acid (500 μL), and the suspension was boiled for 30 minutes and cooled. Fluorescence intensity was measured by means of a fluorescence microplate reader (Spectra MAX Gemini EM, product of Molecular Device) ([…]).

[3] = test system: γ-globin mRNA in K562 cells; assay: γ-globin mRNA level in K562 cells by real-time PCR (TaqMan); conditions: 0.3-μM-added group, cultured three days
Description: K562 cells (1×10^5 cells/mL) were seeded into each well of 6-well plate (4 mL/well). A solution of compound 1 (×1000) was added to the plate (4 μL/well), and cells were cultured in a CO2 incubator (37° C., 5% CO2) for three days. The cultured cells were collected, and RNA was prepared from the cells by means of a RNeasy mini column (product of Qiagen). Subsequently, cDNA was synthesized from the thus-obtained RNA by use of reverse transcriptase. Through real-time PCR employing a TaqMan probe according to a protocol of Applied Bio-Systems, γ-globin mRNA level was determined (ABI PRISM7900HT System, product of Applied Bio-Systems). In Example 2, the following primers and probe were employed (SEQ ID NOs: 1 to 3): […]
forward primer (GGTTCTTTGACAGCTTTG, SEQ ID NO: 1);
reverse primer (CCTTCTTGCCATGTGCCTT, SEQ ID NO: 2); and
fluorescence probe (CCTCTGCCTCTGCCATC, SEQ ID NO: 3).
These primers and probe are custom synthesis products of Qiagen.

Structure (SMILES) | number of HbF-expressing cells (F cells) (K562 cells [1]) | amount of hemoglobin produced (compound-non-added group = 100%) (K562 cells [2]; 0.3-μM-added group, cultured 3 + 3 days) | hemoglobin production promoting action (K562 cells [2]) | amount of γ-globin mRNA produced (compound-non-added group = 1) [3]
COc1ccc(N(Cc2cncc(-c3cc(OC)c(OC)c(OC)c3)c2)C2CCN(Cc3ccnc(-c4cc(OC)c(OC)c(OC)c4)c3)CC2)cc1 [compound 1, 4-[N-(4-Methoxyphenyl)-N-[[5-(3,4,5-trimethoxyphenyl)pyridin-3-yl]methyl]amino]-1-[[2-(3,4,5-trimethoxyphenyl)pyridin-4-yl]methyl]piperidine] | almost doubled | 435% | promotes production of hemoglobin in a concentration (dose)-dependent manner | about four fold
COc1cc(C(=O)OCCCN2CCCN(CCCOC(=O)c3cc(OC)c(OC)c(OC)c3)CC2)cc(OC)c1OC [dilazep hydrochloride, Dilazep hydrochloride, reference compound] | – | – | did not exhibit hemoglobin production promoting action | –
